From ChEMBL document CHEMBL5620344, “Discovery of novel 5-(2-hydroxyphenyl)-2-phthalide-3(3H)-pyrazolones as balanced multifunctional agents against Alzheimer's disease” (Eur J Med Chem, 2023) come the findings set out here.

For series [1], the target named is T1, Amine oxidase [flavin-containing] A (Homo sapiens, UniProt P21397).
T1 sequence (P21397 whole entry): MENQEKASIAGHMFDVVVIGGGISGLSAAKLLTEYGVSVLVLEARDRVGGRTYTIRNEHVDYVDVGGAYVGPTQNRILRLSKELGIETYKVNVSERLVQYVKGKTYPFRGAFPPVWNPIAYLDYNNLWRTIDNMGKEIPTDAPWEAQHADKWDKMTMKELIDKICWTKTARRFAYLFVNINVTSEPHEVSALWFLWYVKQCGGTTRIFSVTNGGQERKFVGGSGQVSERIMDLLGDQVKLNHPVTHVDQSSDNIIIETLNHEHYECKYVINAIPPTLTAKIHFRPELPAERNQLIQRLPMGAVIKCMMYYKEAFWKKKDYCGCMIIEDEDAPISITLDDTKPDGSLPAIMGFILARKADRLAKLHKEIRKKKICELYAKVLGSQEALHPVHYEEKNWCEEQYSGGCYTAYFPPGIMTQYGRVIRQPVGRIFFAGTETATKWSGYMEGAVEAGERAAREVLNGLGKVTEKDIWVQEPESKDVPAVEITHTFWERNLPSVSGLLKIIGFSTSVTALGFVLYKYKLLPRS
In words: Inhibition of human recombinant MAO-A.

The target in series [2] is T2, Amine oxidase [flavin-containing] B (Homo sapiens, UniProt P27338).
T2 sequence (P27338 whole entry): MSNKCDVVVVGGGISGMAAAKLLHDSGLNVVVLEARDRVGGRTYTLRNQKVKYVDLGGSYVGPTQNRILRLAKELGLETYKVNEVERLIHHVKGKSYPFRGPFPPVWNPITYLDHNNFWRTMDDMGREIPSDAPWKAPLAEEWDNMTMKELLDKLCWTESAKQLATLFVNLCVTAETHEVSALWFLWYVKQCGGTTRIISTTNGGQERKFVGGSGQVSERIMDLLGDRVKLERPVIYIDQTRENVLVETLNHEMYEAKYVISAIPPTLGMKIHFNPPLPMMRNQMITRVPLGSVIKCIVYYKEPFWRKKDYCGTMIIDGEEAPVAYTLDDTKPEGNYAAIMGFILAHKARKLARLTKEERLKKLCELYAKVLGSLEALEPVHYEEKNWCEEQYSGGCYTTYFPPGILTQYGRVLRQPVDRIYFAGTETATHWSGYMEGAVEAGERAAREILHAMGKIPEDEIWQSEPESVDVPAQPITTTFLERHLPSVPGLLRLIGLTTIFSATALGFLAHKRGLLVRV
In words: Inhibition of human recombinant MAO-B.

Series [3] can be described thus: Selectivity index, ratio of IC50 for human recombinant MAO-A to IC50 for human recombinant MAO-B.
Series [4] can be described thus: Antioxidant activity assessed as trolox equivalent of ORAC radical scavenging activity by ORAC-FL assay relative to trolox. In kind it is functional.
The target of series [5] is Amyloid-beta precursor protein (Homo sapiens) (UniProt P05067). Nature of the series: Inhibition of self-induced amyloid beta (1 to 42) (unknown origin) aggregation at 25 uM by ThT fluorescence assay.
Series [6] has the same target. In words: Disaggregation of self-induced amyloid beta (1 to 42) (unknown origin) preformed fibrils at 25 uM by ThT fluorescence assay.
The target is the same in series [7]. In words: Inhibition of Cu2+-induced amyloid beta (1 to 42) (unknown origin) aggregation at 25 uM by ThT fluorescence assay.
Series [8] shares this target. Nature of the series: Disaggregation of Cu2+-induced amyloid beta (1 to 42) (unknown origin) preformed fibrils at 25 uM by ThT fluorescence assay.
The target in a further series is T3, MAO-A (Homo sapiens, UniProt P21397).
T3 sequence (P21397 whole entry): T1 sequence (P21397 whole entry)
In words: Inhibition of human recombinant MAO-A at 10 uM.

A word on the IC50: it is the concentration that inhibits the measured activity by half. By inhibition is commonly meant the percentage by which the read-out fell short of the control.

Sequence of Amyloid-beta precursor protein (Homo sapiens) (P05067 whole entry): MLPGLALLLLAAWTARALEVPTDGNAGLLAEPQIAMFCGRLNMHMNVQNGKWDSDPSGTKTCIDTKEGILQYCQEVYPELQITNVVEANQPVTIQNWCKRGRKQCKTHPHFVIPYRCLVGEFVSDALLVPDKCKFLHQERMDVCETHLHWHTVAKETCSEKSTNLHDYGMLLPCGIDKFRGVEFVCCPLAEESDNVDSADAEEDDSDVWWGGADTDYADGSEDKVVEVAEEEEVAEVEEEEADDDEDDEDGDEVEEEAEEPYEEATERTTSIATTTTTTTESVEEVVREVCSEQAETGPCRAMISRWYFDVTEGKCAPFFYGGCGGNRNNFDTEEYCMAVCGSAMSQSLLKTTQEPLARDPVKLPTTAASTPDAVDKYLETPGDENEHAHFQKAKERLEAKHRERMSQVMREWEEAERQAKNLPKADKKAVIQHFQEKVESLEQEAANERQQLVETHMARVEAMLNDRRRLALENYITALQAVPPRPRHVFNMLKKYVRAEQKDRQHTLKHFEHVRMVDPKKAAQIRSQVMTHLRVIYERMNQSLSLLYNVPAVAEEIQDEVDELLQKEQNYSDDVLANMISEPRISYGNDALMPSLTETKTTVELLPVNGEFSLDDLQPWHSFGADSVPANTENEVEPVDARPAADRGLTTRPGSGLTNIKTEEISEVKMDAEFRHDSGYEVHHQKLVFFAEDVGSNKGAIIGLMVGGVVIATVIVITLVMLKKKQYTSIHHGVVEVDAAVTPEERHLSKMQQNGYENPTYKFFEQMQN

Regarding `CCCCCCC1OC(=O)c2cc(N3N=C(c4cc(F)ccc4O)CC3=O)ccc21` (centres undefined), the figures for the half-maximal inhibitory concentration (IC50) in series [1] and in series [2] were above 10 µM and 6.34 µM, respectively. The Ratio IC50 in series [3] was above 1.6. The Ratio in series [4] came out at 1.1 equiv. The inhibition came out at 44.6% in [5] and 31.8% in [7]. For the same compound, the Activity turned out to be 43.7% in series [6] and 55% in series [8]. Moreover, the inhibition at 10 µM on MAO-A was 10.7%.

`CCCCC1OC(=O)c2cc(N3N=C(c4cc(F)ccc4O)CC3=O)ccc21` (centres undefined): the half-inhibitory concentration (IC50) in [1] was above 10 µM; in series [2], 3.45 µM. For the same compound, the Ratio IC50 in series [3] was above 2.9. In series [4], the Ratio was found to be 1.21 equiv. The figures for the inhibition in series [5] and in [7] were 66.6% and 60.3%, respectively. Besides, the Activity in [6] was 52.7%; in [8], 59.5%. Further, the inhibition at 10 µM at MAO-A came out at 13.3%.

For the compound `CCCCC1OC(=O)c2cc(N3N=C(c4cc(Br)ccc4O)CC3=O)ccc21` (centres undefined), the IC50 in series [1] is above 10 µM; in series [2] it was 9.25 µM. Further, the Ratio IC50 in series [3] was above 1.08. For the same compound, the Ratio in series [4] worked out at 1.38 equiv. The inhibition amounted to 69.3% in [5] and 64.1% in [7]. Also, the Activity stood at 44.8% in [6] and 55% in [8]. The inhibition at 10 µM at MAO-A was 10.9%.

Regarding `CCCCCCC1OC(=O)c2cc(N3N=C(c4cc(Cl)ccc4O)CC3=O)ccc21` (centres undefined), the 50% inhibitory concentration (IC50) was above 10 µM in [1] and 8.32 µM in series [2]. In [3], the Ratio IC50 was above 1.2. Also, the Ratio in series [4] came to 1.18 equiv. Also, the inhibition came out at 54.6% in [5] and 52.7% in series [7]. In addition, the Activity in series [6] is 76.3%; in series [8], 73.8%. Also, the inhibition at 10 µM at MAO-A came out at 27.8%.

On to `CCCCC1OC(=O)c2cc(N3N=C(c4ccc(Cl)cc4O)CC3=O)ccc21` (centres undefined), for which the half-maximal inhibitory concentration (IC50) in [1] was above 10 µM; in series [2], 8.05 µM. Besides, in series [3], the Ratio IC50 was above 1.2. Moreover, the Ratio in [4] is 1.29 equiv. Further, the inhibition in series [5] came out at 68%; in [7], 66.2%. Further, the Activity in [6] was 56.5%; in [8] it was 65.6%. At MAO-A, the inhibition at 10 µM is 5.51%.

Regarding `CCCCC1OC(=O)c2cc(N3N=C(c4cc(Cl)cc(Br)c4O)CC3=O)ccc21` (centres undefined), the results for the IC50 in series [1] and in [2] were above 10 µM and 6.5 µM, respectively. In series [3], the Ratio IC50 is above 1.5. For the same compound, the Ratio in series [4] stood at 1.1 equiv. Further, the inhibition in [5] was determined as 65.2%; in series [7] it was 85.1%. For the same compound, the Activity amounted to 87.1% in series [6] and 86.8% in [8]. For the same compound, the inhibition at 10 µM on MAO-A was found to be 8.09%.
